Source: PMC7495458, “Generating Ampicillin-Level Antimicrobial Peptides with Activity-Aware Generative Adversarial Networks” (ACS Omega, 2020)
Values after ≈ are worked out from the molar mass of the structure shown. No end group written: not given here.

Tested on: E. coli TOP10
Assay: microbe, parasite or virus in culture
Format: cell-based
Settings: Escherichia coli; microdilution test, E. coli TOP10 late-log phase, 5 × 10^5 cfu/mL, 150 μL, 2-fold dilutions, 26 h at 37 °C, optical density 600 nm; read-out: MIC
Experimental: The potency of the peptides is evaluated based on MIC against E. coli. MIC is determined as the minimum concentration of an antimicrobial at which the growth of a target microbe is suppressed. […] The high production ratio, 5/6, and the sufficiently low MIC of AMP4 validate PepGAN’s ability to generate industry-level peptides.
The MICs of the peptides were determined using the microdilution test with some modifications. We used E. coli TOP10 (Thermo Scientific, MA, USA) in the late-log phase for this test. The colony forming unit (cfu) of E. coli was determined using optical density at 600 nm. For each peptide, we prepared 11 wells containing 150 μL of 5 × 10^5 cfu/mL of E. coli and the series of concentration of each peptide from 10 to 0.01 μg/mL (2-fold dilution for 10 times). We also prepared one well containing only 150 μL of 5 × 10^5 cfu/mL of E. coli without the peptide. Similarly, we prepared 11 wells for ampicillin in the same well-plate. We incubate the plates for 26 h at 37 °C for the growth of E. coli. To read the optical density for each well, we set the plates in a plate reader (EnSpire 2300, PerkinElmer). After shaking the plate for 10 s at 300 rpm in double-orbital motion (diameter 1 mm), we measured the optical density of each solution (600 nm).

| Compound | MIC [µg/mL] |
| --- | --- |
| CC1(C)S[C@@H]2[C@H](NC(=O)[C@H](N)c3ccccc3)C(=O)N2[C@H]1C(=O)O [ampicillin] | 6.25 (≈ 17.9 µM) |

Same assay, conditions: TOP10, 26 h

| Compound | MIC [µg/mL] |
| --- | --- |
| LFTMADPIQSIEKEI-NH2 [AMP7NC] | >100 |
| ILPLLKKFGKKFGKKVWKAL-NH2 [AMP1] | 25 |
| FLPAFKNVISKILKALKKKV-NH2 [AMP5] | 12.5 |
| KRFLPSCVRSIQNLDDALPTPEEF-NH2 [AMP8NC] | >100 |
| FLGPIIKTVRAVLCAIKKL-NH2 [AMP6] | 25 |
| EIEYGNPGVGTDR-NH2 [AMP9NC] | >100 |
| GLKKLFSKIKIIGSALKNLA-NH2 [AMP4] | 3.1 |
| TLPEWDDRRVVNS-NH2 [AMP10NC] | >100 |
| GLRSSVKTLLRGLLGIIKKF-NH2 [AMP3] | >100 |
| IKALLALPKLAKKIAKKFLK-NH2 [AMP2] | 50 |
